Columns and labels:
Assay type in all cases: in vivo
Viola tricolor [1] = experiment: Herbicidal effect post-emergence; details: 320 g/ha, visual grading after ca. 3 weeks (Table 9)
Description: (§1) Herbicidal activities of the compounds of the formulae (G1) or (G2) according to the invention were investigated against the following harmful plants: • ALOMY=Alopecurus myosuroides • ECHCG=Echinochloa crus-galli • SETVI=Setaria viridis • ABUTH=Abutilon theophrasti • AMARE=Amaranthus retroflexus • PHBPU=Pharbitis purpurea • POLCO=Polygonum convolvulus (=Fallopia convolvulus) • STEME=Stellaria media • VIOTR=Viola tricolor
(§2) Seeds of mono- and dicotyledonous weed plants and crop plants are sown in wood-fiber pots in sandy loam, covered with soil and grown in a greenhouse under controlled growth conditions. 2 to 3 weeks after sowing, the test plants are sprayed in the single-leaf stage. The compounds according to the invention, formulated in form of wettable powders (WP) or as emulsifiable concentrates (EC), are then sprayed onto the green plant parts as aqueous suspension or emulsion, with the addition of 0.5% of an additive, at an application rate of 600 l of water/ha (converted). After the test plants had been in the greenhouse for ca. 3 weeks under optimum growth conditions, the effect of the preparations is assessed visually in comparison with untreated controls (herbicidal effect in percent (%): 100% effect=plants have died off, 0% effect=as control plants).

Setaria viridis [2] = experiment: Herbicidal effect post-emergence; details: 320 g/ha, visual grading after ca. 3 weeks (Table 9)
Description: as §1, §2

Amaranthus retroflexus [3] = experiment: Herbicidal effect post-emergence; details: 320 g/ha, visual grading after ca. 3 weeks (Table 9)
Description: as §1, §2

Viola tricolor [4] = experiment: Herbicidal effect pre-emergence; details: 320 g/ha, visual grading after ca. 3 weeks vs untreated controls
Description: as §1
(§3) Seeds of mono- and dicotyledonous weed plants and crop plants are sown in wood-fiber pots in sandy loam and covered with soil. The compounds according to the invention, formulated in the form of wettable powders (WP) or as emulsifiable concentrates (EC), are then applied to the surface of the covering soil as aqueous suspension or emulsion, with the addition of 0.5% of an additive, at an application rate of 600 l of water/ha (converted).
(§4) Following treatment, the pots are placed in a greenhouse and kept under optimum growth conditions for the test plants. The visual grading of the damage to the test plants is carried out after ca. 3 weeks in comparison to untreated controls (herbicidal effect in percent (%): 100% effect=plants have died off, 0% effect=as control plants).

Setaria viridis [5] = experiment: Herbicidal effect pre-emergence; details: 320 g/ha, visual grading after ca. 3 weeks vs untreated controls
Description: as §1, §3, §4

Amaranthus retroflexus [6] = experiment: Herbicidal effect pre-emergence; details: 320 g/ha, visual grading after ca. 3 weeks vs untreated controls
Description: as §1, §3, §4

| Structure (SMILES) | herbicidal effect VIOTR (Viola tricolor [1]) [%] | herbicidal effect SETVI (Setaria viridis [2]) [%] | herbicidal effect AMARE (Amaranthus retroflexus [3]) [%] | herbicidal effect VIOTR (Viola tricolor [4]) [%] | herbicidal effect SETVI (Setaria viridis [5]) [%] | herbicidal effect AMARE (Amaranthus retroflexus [6]) [%] |
| --- | --- | --- | --- | --- | --- | --- |
| CCO/N=C(/C)c1cn(CC2CCCCC2)c(=O)c2snc(N)c12 [Example I-142] | 80 | 100 | 100 |  |  |  |
| COC/C=C/c1cn(CC2CCCCC2)c(=O)c2snc(N)c12 [Example I-108] | 100 | 100 | 100 |  |  |  |
| CCC(=O)Nc1nsc2c(=O)n(CC3CCCCC3Cl)cc(Cl)c12 (racemic) [Example I-173] |  |  |  | 100 | 100 | 90 |
| Nc1nsc2c(=O)n(CC3CCCCC3)cc(C(=O)O)c12 [Example I-170] |  |  |  | 90 | 100 | 100 |
| O=C(Nc1nsc2c(=O)n(CC3CCCCC3Cl)cc(Cl)c12)C(F)F (racemic) [Example I-159] |  |  |  | 100 | 100 | 100 |
| CO/N=C(/C)c1cn(CC2CCCCC2)c(=O)c2snc(N)c12 [Example I-134] | 100 | 80 | 100 |  |  |  |
| COCC#Cc1cn(CC2CCCCC2)c(=O)c2snc(N)c12 [Example I-103] | 100 | 100 | 100 | 100 | 80 | 90 |
| Nc1nsc2c(=O)n(CC3CCCCC3Cl)cc(Cl)c12 (racemic) [Example I-155] |  |  |  | 100 | 100 | 80 |
| CCc1cc2c(N)nsc2c(=O)n1CC1CCCCC1 [Example I-020] | 100 | 100 | 100 |  |  |  |
| CCC(=O)Nc1nsc2c(=O)n(CC3CCCCC3)c(COC)cc12 [Example I-033] |  |  |  | 100 | 100 | 100 |
| Nc1nsc2c(=O)n(CC3CCCCC3)c(CO)cc12 [Example I-036] | 100 | 100 | 90 | 80 | 90 | 100 |
| CC(=O)OCc1cc2c(N)nsc2c(=O)n1CC1CCCCC1 [Example I-027] |  |  |  | 90 | 90 | 100 |
| N#Cc1cn(CC2CCCCC2)c(=O)c2snc(N)c12 [Example I-135] | 100 | 90 | 100 | 100 | 100 | 100 |
| CCC(=O)N(C(=O)CC)c1nsc2c(=O)n(CC3CCCCC3)cc(Cl)c12 [Example I-082] | 100 | 100 | 100 | 100 | 100 | 100 |
| CC(O)c1cn(CC2CCCCC2)c(=O)c2snc(N)c12 (stereo not drawn) [Example I-147] | 100 | 80 | 100 |  |  |  |
| CCCc1cn(CC2CCCCC2)c(=O)c2snc(N)c12 [Example I-126] | 100 | 80 | 100 |  |  |  |
| CCc1cn(CC2CCCCC2)c(=O)c2snc(NC(=O)C(F)(F)C(F)(F)F)c12 [Example I-107] |  |  |  | 100 | 80 | 100 |
| Cc1ccc(-c2cn(CC3CCCCC3)c(=O)c3snc(N)c23)o1 [Example I-132] | 90 | 100 | 80 |  |  |  |
| COCC(=O)Nc1nsc2c(=O)n(CC3CCCCC3)cc(Cl)c12 [Example I-085] | 100 | 100 | 100 | 100 | 100 | 100 |

| Structure (SMILES) | herbicidal effect VIOTR (Viola tricolor [1]) [%] | herbicidal effect SETVI (Setaria viridis [2]) [%] | herbicidal effect AMARE (Amaranthus retroflexus [3]) [%] | herbicidal effect VIOTR (Viola tricolor [4]) [%] | herbicidal effect SETVI (Setaria viridis [5]) [%] | herbicidal effect AMARE (Amaranthus retroflexus [6]) [%] |
| --- | --- | --- | --- | --- | --- | --- |
| CCC(=O)Nc1nsc2c1CC(CO)N(CC1CCCCC1)C2=O (stereo not drawn) [Example I-044] | 100 | 100 | 100 | 100 | 90 | 100 |
| O=C(Nc1nsc2c(=O)n(CC3CCCCC3)c(C3CC3)cc12)C(F)(F)C(F)(F)F [Example I-022] |  |  |  | 100 | 100 | 100 |
| C=CCc1cn(CC2CCCCC2)c(=O)c2snc(N)c12 [Example I-143] | 100 | 100 | 100 |  |  |  |
| COCc1cc2c(NC(=O)C(F)(F)C(F)(F)F)nsc2c(=O)n1CC1CCCCC1 [Example I-034] |  |  |  | 100 | 100 | 100 |
| CC(C)c1cc2c(N)nsc2c(=O)n1CC1CCCCC1 [Example I-023, 3-amino-6-(cyclohexylmethyl)-5-isopropyl-isothiazolo[5,4-c]pyridin-7-one] | 100 | 90 | 100 | 90 | 90 | 100 |
| CC(C)c1cc2c(NC(=O)C(F)(F)C(F)(F)F)nsc2c(=O)n1CC1CCCCC1 [Example I-021, N-[6-(cyclohexylmethyl)-5-isopropyl-7-oxo-isothiazolo[5,4-c]pyridin-3-yl]-2,2,3,3,3-pentafluoro-propanamide] | 80 | 100 | 100 | 100 | 90 | 100 |
| C=Cc1cc2c(N)nsc2c(=O)n1CC1CCCCC1 [Example I-051] |  |  |  | 100 | 90 | 90 |
| CCC(=O)OCc1cc2c(N)nsc2c(=O)n1CC1CCCCC1 [Example I-046] |  |  |  | 90 | 100 | 100 |
| Nc1nsc2c1C(O)CN(CC1CCCCC1)C2=O (stereo not drawn) [Example I-144] |  |  |  | 100 | 90 | 100 |
| CC(O)c1cc2c(N)nsc2c(=O)n1CC1CCCCC1 (stereo not drawn) [Example I-072] | 100 | 80 | 100 |  |  |  |
| CCO/N=C(/C)c1cn(CC2CCCCC2)c(=O)c2snc(N)c12 [Example I-141] | 100 | 100 | 100 |  |  |  |
| COC(C)(C)C#Cc1cn(CC2CCCCC2)c(=O)c2snc(N)c12 [Example I-105] |  |  |  | 100 | 100 | 100 |
| CC#Cc1cn(CC2CCCCC2)c(=O)c2snc(N)c12 [Example I-115] | 100 | 100 | 100 |  |  |  |
| CC(=O)OCc1cc2c(NC(=O)C(F)(F)C(F)(F)F)nsc2c(=O)n1CC1CCCCC1 [Example I-035] |  |  |  | 80 | 100 | 100 |
| CCO/C=C/c1cn(CC2CCCCC2)c(=O)c2snc(N)c12 [Example I-113] | 100 | 100 | 100 |  |  |  |
| CCCc1cc2c(NC(=O)C(F)(F)C(F)(F)F)nsc2c(=O)n1CC1CCCCC1 [Example I-032] |  |  |  | 80 | 100 | 80 |
| CC(=O)c1cn(CC2CCCCC2)c(=O)c2c1C(N)=NS2(=O)=O [Example I-158] |  |  |  | 100 | 80 | 90 |
| C/C(=N/OCC1CC1)c1cn(CC2CCCCC2)c(=O)c2snc(N)c12 [Example I-167] |  |  |  | 100 | 100 | 100 |
| C=C(OCC)c1cn(CC2CCCCC2)c(=O)c2snc(N)c12 [Example I-133] |  |  |  | 100 | 90 | 90 |

Source: patent US10842152B2, “Isothiazolo-based bicycles, processes for their preparation and their use as herbicides and/or plant growth regulators” (Bayer CropScience Aktiengesellschaft, priority 2017, dated 2020)
